Test results published in publication PMC11094307, “Marine-derived EGFR inhibitors: novel compounds targeting breast cancer growth and drug resistance” (Frontiers in Pharmacology, 2024).
“And” between values parts separate entries of the source, which are not always exact repeats. Identical values can stand only once.

Assays:
EGFR T790M = target: T1, EGFR T790M (Homo sapiens, UniProt P00533, T790M); experiment: Kinase inhibition assay (ADP-Glo, Promega); type: biochemical; details: in vitro kinase assay; read-out: IC50 against EGFR T790M
T1 construct: purchased Promega Corporation, USA
Experimental: (§1) The extracellular ligand-binding domain of EGFR, tagged with His, and the intracellular tyrosine kinase (TK) domain of EGFR, tagged with GST, were acquired from Sinobiological, China. […] Cell lines including MCF-7, A549, A431, H1299, HL-60, and MCF-10A were obtained from the China Infrastructure Cell Line Resources.
(§2) The experiments were conducted in accordance with the manufacturer’s guidelines (Promega). The procedure began with a kinase reaction, where 5 μL of 1× kinase buffer was utilized, and the mixture was incubated at room temperature for 60 min. This step was followed by the addition of 5 μL of ADP-Glo™ reagent to terminate the kinase reaction and to deplete any remaining ATP, with a subsequent incubation period of 40 min at room temperature. Next, 10 μL of kinase detection reagent was added to convert ADP back into ATP, and luciferase along with luciferin was introduced to facilitate ATP detection. This mixture was then incubated at room temperature for an additional 30 min. Detection was carried out using a BioTek Synergy4 instrument, and data analysis, including curve fitting and presentation, was performed using GraphPad Prism version 5.0.
(§3) All experiments were repeated at least three times, and the data are presented as mean ± standard deviation (SD). The statistical analyses were performed using Origin. EC50 or IC50 values were obtained by fitting the data to a four-parameter Hill model of the graph of log dose against percentage cell viability or inhibition from at least three sets of experiments. Difference between two groups were analyzed by Student’s t test (two-sided) and significance was set at p < 0.05. The specific details about statistical methods are introduced in respective figure legends.

EGFR L858R/T790M = target: T2, EGFR L858R/T790M (Homo sapiens, UniProt P00533, L858R/T790M); experiment: Kinase inhibition assay (ADP-Glo, Promega); type: biochemical; details: in vitro kinase assay; read-out: IC50 against EGFR L858R/T790M
T2 construct: purchased Promega Corporation, USA
Experimental: as §1, §2, §3

WT EGFR = target: T3, WT EGFR (Homo sapiens, UniProt P00533); experiment: Kinase inhibition assay (ADP-Glo, Promega); type: biochemical; details: in vitro kinase assay; read-out: IC50 against WT EGFR
T3 construct: purchased Promega Corporation, USA
Experimental: as §1, §2, §3

EGFR L858R = target: T4, EGFR L858R (Homo sapiens, UniProt P00533, L858R); experiment: Kinase inhibition assay (ADP-Glo, Promega); type: biochemical; details: in vitro kinase assay; read-out: IC50 against EGFR L858R
T4 construct: purchased Promega Corporation, USA
Experimental: as §1, §2, §3

BAX = experiment: Western blotting of MCF-7 lysates, BAX; type: cell-based, human; details: for BAX WB Normalized: control 0 µM 0.795076455
Experimental: (§4) MCF-7 cell lysates were prepared by rinsing the cells twice with PBS and then solubilizing them in lysis buffer (NP40 supplemented with protease and phosphatase inhibitor cocktails) on ice. The solubilization process involved rotating the lysis buffer/cell mixture end over end for 10 min at 4°C. After centrifugation for 10 min at 4°C to remove insoluble material, the protein concentration of the solubilized protein was determined using a BCA assay. Subsequently, samples were diluted in SDS sample buffer. Equivalent amounts of protein were separated by SDS-PAGE, transferred to PVDF membranes, and probed with the indicated antibody. Prior to incubation with primary antibodies overnight at 4°C, the membranes were blocked with 5% skim milk-TBST. The antibodies and their sources were as follows: PARP1 (1:500, Santa Cruz Biotechnology), Cleaved Caspase-3 (1:1000, Cell Signaling Technology), BAX (1:500, Santa Cruz Biotechnology), BCL-2 (1:500, Santa Cruz Biotechnology), and GAPDH (1:500, Santa Cruz Biotechnology). Following incubation with horseradish peroxidase-conjugated goat anti-mouse or goat anti-rabbit secondary antibody (Santa Cruz Biotechnology), the detected proteins were visualized using the Pierce Enhanced Chemiluminescence (ECL) reagent and a UV Products imaging system. Band intensities were quantified using the National Institutes of Health ImageJ software.

PARP1 = experiment: Western blotting of MCF-7 lysates, PARP1; type: cell-based, human; details: for PARP1 WB Normalized: control 0 µM 1.034604877
Experimental: as §4

BCL-2 = experiment: Western blotting of MCF-7 lysates, BCL-2; type: cell-based, human; details: for BCL-2 WB Normalized: control 0 µM 0.841817367
Experimental: as §4

EGFR = target: T5, EGFR (Homo sapiens, UniProt P00533); experiment: CETSA in MCF-7 cells; type: cell-based; details: for CETSA WB Normalized (Figure 3F): control 0 µM 0.614197892
T5 construct: endogenous in cells; host or cells: MCF-7
Experimental: In the CETSA, MCF-7 cells were treated with varying concentrations of Tandyukisin (5, 10, 20 µM) or a control solution of 0.2% DMSO for 24 h. Following treatment, cells were harvested and washed with PBS to eliminate any residual drug, then an equal number of cells were allocated into 0.2 mL PCR tubes. These cells were resuspended in 100 µL PBS supplemented with a complete protease inhibitor cocktail and subjected to a heating step at […] for 3 min. Post-heating, the cells underwent lysis through three cycles of freeze-thaw using liquid nitrogen, followed by centrifugation at 12,000g for 20 min at 4°C to separate the lysate. The clarified supernatant from each tube was then carefully transferred to fresh tubes for Western blotting.
To confirm Tandyukisin directly bound EGFR in cells, CETSA was conducted. Currently, CETSA is widely used in drug target discovery assay and is based on the thermal stability changes after drugs bind to their targets ([Martinez Molina et al., 2013]; [Jafari et al., 2014]). After treatment with Tandyukisin at 5, 10, 20 μM for 24 h, the multiple aliquots of the cell suspension were heated at 55°C. The heated cells were subsequently lysed and centrifuged to separate soluble fractions from precipitated denatured EGFR. After thermal denaturation, EGFR in the soluble fraction was examined by Western blotting.

EGFR kinase domain = target: T6, EGFR kinase domain (Homo sapiens, UniProt P00533); experiment: Differential Scanning Fluorimetry (DSF); type: binding; details: 10 µM; 52.6°C at 0 µM
T6 construct: the intracellular tyrosine kinase (TK) domain of EGFR, tagged with GST; purchased Sinobiological, China
Experimental: In the Differential Scanning Fluorimetry (DSF) study, concentrations of Tandyukisin-1.3, 2.5, 5, and 10 µM-were incubated with 0.05 mg/mL of the EGFR kinase domain. A control sample, containing only 5% DMSO, was used alongside the EGFR kinase domain. The thermal stability of the EGFR kinase domain was assessed using PR NT.48 (NanoTemper). The assay conditions were set to a temperature range of 25°C–95°C with a ramp rate of 1 °C/min.

T5 sequence (P00533 25-1210): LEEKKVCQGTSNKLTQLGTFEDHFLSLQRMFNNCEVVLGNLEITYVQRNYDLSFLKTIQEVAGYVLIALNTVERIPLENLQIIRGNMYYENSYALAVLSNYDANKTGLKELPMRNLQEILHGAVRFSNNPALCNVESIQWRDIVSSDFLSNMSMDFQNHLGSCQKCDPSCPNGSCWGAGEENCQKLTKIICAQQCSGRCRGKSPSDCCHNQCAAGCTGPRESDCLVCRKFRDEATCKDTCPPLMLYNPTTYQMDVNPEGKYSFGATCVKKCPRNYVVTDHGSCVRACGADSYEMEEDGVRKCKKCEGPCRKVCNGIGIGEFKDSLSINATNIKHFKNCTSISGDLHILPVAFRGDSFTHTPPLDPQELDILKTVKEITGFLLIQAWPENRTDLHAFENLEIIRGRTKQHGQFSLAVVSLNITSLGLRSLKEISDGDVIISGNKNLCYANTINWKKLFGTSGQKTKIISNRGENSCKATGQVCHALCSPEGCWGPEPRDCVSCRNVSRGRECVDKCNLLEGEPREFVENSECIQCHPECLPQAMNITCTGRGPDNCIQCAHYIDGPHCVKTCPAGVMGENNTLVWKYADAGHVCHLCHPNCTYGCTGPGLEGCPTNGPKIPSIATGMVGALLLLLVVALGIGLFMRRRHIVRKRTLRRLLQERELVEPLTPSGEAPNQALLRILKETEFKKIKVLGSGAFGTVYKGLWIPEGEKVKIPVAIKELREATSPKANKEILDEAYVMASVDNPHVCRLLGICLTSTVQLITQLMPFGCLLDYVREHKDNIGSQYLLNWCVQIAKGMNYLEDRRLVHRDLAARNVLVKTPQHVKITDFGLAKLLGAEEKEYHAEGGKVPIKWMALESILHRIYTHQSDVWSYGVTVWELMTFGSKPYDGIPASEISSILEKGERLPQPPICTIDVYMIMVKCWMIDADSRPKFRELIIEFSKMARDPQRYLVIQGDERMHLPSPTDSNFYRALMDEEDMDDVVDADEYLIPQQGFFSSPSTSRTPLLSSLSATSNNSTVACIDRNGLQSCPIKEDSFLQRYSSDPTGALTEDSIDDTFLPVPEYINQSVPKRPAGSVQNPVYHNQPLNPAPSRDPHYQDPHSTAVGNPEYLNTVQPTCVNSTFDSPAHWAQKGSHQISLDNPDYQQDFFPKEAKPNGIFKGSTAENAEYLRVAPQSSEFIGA
T3 sequence (P00533 25-1210): as above
T6 sequence (P00533 712-979 limits assumed): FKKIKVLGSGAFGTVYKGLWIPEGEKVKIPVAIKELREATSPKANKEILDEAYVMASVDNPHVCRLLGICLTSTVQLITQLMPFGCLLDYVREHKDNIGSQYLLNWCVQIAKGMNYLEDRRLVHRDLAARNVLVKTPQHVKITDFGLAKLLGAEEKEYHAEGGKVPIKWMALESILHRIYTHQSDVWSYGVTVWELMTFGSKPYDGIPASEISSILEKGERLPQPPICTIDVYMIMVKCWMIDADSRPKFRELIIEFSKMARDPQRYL
T2 sequence (P00533 25-1210 T790M/L858R): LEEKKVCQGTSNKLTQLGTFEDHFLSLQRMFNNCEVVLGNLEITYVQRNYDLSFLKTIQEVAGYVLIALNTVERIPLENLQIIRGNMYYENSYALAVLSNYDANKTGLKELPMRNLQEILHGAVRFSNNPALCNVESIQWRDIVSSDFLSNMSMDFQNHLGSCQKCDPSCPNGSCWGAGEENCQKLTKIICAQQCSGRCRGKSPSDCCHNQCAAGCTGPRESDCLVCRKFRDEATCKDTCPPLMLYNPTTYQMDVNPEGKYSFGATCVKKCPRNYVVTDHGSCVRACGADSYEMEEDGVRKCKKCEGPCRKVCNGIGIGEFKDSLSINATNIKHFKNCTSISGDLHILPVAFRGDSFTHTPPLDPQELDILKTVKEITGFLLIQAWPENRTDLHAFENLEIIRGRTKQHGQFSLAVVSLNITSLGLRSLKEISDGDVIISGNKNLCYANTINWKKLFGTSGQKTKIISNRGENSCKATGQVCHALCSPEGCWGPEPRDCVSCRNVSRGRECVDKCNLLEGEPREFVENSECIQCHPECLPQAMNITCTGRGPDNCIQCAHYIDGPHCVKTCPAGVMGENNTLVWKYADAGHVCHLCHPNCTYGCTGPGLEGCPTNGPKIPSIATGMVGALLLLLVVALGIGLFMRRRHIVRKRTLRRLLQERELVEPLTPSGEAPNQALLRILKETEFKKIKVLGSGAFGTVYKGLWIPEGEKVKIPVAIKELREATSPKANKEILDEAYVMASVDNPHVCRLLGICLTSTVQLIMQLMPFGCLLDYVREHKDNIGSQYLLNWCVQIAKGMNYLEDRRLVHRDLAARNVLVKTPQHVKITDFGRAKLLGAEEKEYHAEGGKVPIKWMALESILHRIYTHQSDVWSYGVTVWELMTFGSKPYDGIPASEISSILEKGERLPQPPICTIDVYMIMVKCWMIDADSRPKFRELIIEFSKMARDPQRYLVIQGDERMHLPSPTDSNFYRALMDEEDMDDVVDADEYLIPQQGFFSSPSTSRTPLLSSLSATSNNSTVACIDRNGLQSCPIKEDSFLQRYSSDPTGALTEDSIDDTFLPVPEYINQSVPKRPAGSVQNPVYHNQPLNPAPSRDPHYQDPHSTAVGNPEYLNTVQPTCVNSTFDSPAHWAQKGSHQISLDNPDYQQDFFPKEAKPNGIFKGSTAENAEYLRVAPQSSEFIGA
T4 sequence (P00533 25-1210 L858R): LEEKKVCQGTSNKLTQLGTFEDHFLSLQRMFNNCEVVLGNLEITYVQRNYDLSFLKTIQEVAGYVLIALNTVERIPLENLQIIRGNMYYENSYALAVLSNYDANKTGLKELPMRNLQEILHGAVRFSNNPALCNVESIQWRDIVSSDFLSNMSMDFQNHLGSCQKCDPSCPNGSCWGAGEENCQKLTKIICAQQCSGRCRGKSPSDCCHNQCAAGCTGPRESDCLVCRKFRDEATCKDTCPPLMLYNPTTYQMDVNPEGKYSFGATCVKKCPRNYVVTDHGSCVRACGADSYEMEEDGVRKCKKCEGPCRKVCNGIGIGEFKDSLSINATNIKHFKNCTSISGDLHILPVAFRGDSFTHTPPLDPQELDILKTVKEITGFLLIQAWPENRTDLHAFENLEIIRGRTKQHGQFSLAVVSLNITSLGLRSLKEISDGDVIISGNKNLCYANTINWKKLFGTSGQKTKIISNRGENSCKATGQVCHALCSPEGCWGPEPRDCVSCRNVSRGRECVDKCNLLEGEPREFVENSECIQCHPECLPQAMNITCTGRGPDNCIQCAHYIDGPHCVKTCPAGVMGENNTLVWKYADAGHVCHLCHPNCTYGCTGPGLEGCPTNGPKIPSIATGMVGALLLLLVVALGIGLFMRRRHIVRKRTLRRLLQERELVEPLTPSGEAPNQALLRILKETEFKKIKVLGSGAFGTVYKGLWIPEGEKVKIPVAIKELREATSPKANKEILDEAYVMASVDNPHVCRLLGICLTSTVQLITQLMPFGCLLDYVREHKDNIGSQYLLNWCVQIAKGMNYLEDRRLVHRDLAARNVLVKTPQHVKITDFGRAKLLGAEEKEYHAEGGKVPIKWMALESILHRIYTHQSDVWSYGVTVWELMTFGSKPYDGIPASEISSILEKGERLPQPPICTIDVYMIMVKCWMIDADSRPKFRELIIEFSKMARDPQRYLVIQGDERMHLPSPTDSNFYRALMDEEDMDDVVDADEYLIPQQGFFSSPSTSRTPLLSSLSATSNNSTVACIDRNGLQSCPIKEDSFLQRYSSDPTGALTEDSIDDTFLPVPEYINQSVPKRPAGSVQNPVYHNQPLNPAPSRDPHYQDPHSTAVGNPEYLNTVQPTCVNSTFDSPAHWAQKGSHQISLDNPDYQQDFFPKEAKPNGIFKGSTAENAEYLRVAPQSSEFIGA

For `COC(=O)C/C(C)=C/C(=O)O[C@@H]1C[C@@H](C)[C@H]2[C@@H](C=C[C@H](CC(C)C)[C@]2(C)C(=O)/C=C\O)[C@@H]1O` [Tandyukisin], which IC50 (EGFR T790M) is on record?
Its IC50 is 32.6 ± 0.6 nM.

What about the IC50 (EGFR L858R/T790M) of the same compound?
Its IC50 is 237 ± 28 nM.

And the IC50 (WT EGFR)?
The IC50 was 10.6 nM and 10 nM and ~10 nM.

And the IC50 (EGFR L858R)?
The IC50 was 3.1 ± 0.1 nM.

And the “BAX WB Gray Value” (BAX; 5 µM)?
The value was 19561.731.

And the “BAX WB Normalized” value (BAX; 5 µM)?
The value was 0.4461.

And the “BAX WB Gray Value” (BAX; 10 µM)?
Its value is 48768.744.

What about the “BAX WB Normalized” value (BAX; 10 µM) of the same compound?
The value was 1.12.

And the “BAX WB Gray Value” (BAX; 20 µM)?
The value was 33049.489.

What about the “BAX WB Normalized” value (BAX; 20 µM) of the same compound?
Its value is 0.9664.

What about the “PARP1 WB Gray Value” (PARP1; 5 µM) of the same compound?
The value was 43160.066.

And the “PARP1 WB Normalized” value (PARP1; 5 µM)?
Its value is 0.9844.

What about the “PARP1 WB Gray Value” (PARP1; 10 µM) of the same compound?
Its value is 33044.409.

And the “PARP1 WB Normalized” value (PARP1; 10 µM)?
Its value is 0.759.

And the “PARP1 WB Gray Value” (PARP1; 20 µM)?
The value was 24731.459.

What about the “PARP1 WB Normalized” value (PARP1; 20 µM) of the same compound?
The value was 0.7232.

What about the “expression level of PARP1” value (PARP1; MCF-7, upon treatment) of the same compound?
The value was “decreased”.

And the “BCL-2 WB Gray Value” (BCL-2; 5 µM)?
The value was 41097.258.

What about the “BCL-2 WB Normalized” value (BCL-2; 5 µM) of the same compound?
The value was 0.9373.

And the “BCL-2 WB Gray Value” (BCL-2; 10 µM)?
The value was 21588.48.

What about the “BCL-2 WB Normalized” value (BCL-2; 10 µM) of the same compound?
The value was 0.4959.

What about the “BCL-2 WB Gray Value” (BCL-2; 20 µM) of the same compound?
The value was 7215.723.

What about the “BCL-2 WB Normalized” value (BCL-2; 20 µM) of the same compound?
Its value is 0.211.

And the “CETSA WB Gray Value (Figure 3F)” value (EGFR; 5 µM)?
The value was 29078.924.

What about the “CETSA WB Normalized (Figure 3F)” value (EGFR; 5 µM) of the same compound?
The value was 0.7019.

What about the “CETSA WB Gray Value (Figure 3F)” value (EGFR; 10 µM) of the same compound?
The value was 31150.702.

And the “CETSA WB Normalized (Figure 3F)” value (EGFR; 10 µM)?
The value was 0.8063.

What about the “CETSA WB Gray Value (Figure 3F)” value (EGFR; 20 µM) of the same compound?
Its value is 42106.53.

What about the “CETSA WB Normalized (Figure 3F)” value (EGFR; 20 µM) of the same compound?
Its value is 1.166.

What about the “accumulation of EGFR in the soluble fraction (CETSA) compared with DMSO control” value (EGFR; MCF-7, 5, 10, 20 μM, 24 h, heated) of the same compound?
Its value is “markable increase”.

And the “melting temperature (Tm) of EGFR kinase domain” value (EGFR kinase domain)?
Its value is 54.2 °C.
